Test results published in PMC7110780, “Multimodular fused acetyl–feruloyl esterases from soil and gut Bacteroidetes improve xylanase depolymerization of recalcitrant biomass” (Biotechnology for Biofuels, 2020).

Target: T1, BoCE6–CE1 (Bacteroides ovatus, UniProt A0ABU3ING8)
T1 construct: gene RO706_05995
Assay: absorbance […] nm
Format: biochemical
Conditions: […] °C, […] buffer

T1 sequence (A0ABU3ING8 20-638): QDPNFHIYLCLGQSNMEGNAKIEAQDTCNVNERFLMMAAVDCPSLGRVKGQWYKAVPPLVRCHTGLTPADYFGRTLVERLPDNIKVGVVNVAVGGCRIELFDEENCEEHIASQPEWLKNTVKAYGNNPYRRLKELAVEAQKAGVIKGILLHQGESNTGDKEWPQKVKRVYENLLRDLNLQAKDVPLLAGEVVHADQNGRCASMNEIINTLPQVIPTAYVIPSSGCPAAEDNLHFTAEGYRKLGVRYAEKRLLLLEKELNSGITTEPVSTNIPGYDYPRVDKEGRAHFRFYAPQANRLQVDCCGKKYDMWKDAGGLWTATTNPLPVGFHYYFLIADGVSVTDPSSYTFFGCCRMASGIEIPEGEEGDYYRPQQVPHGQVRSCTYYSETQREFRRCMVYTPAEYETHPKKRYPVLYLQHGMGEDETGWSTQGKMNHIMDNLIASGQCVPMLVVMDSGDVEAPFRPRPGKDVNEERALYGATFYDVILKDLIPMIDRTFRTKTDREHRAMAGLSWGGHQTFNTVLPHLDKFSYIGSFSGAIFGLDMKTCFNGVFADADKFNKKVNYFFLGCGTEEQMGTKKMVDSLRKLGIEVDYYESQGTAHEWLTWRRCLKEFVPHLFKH

SMILES | absorbance 340 nm
COC(=O)/C=C/c1cc(OC)c(O)c(OC)c1 [MSA] | The activity on MFA and MSA was in the same order of magnitude for the full-length
COC(=O)/C=C/c1ccc(O)c(OC)c1 [MFA] | The activity on MFA and MSA was in the same order of magnitude for the full-length
